# System: HOP-62 multicell spheroids with HUVEC/MSC, viability
# Assay: Anticancer human tumor HOP-62 cell line growth inhibition [KRAS2];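 further: viability read after a week of compound exposure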;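 on viability, T/C: 100% = DMSO vehicle-treated spheroids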
# Settings: for IC50: curve of first compound; for viability, T/C: stronger effect = lower value
# How it was run: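 KRAS-mutant tumor cells were grown as spheroids with HUVEC endothelial cells and human MSCs as stroma. Targeted agents were tested alone and with KRAS pathway inhibitors. Doses started at or near clinical Cmax, or 10 microM, descending half-log.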
# [1] = second compound 0.1 µM, first compound 0.0316 µM
# [2] = second compound 0.1 µM, first compound 0.1 µM
# [3] = second compound 0.1 µM, first compound 0.316 µM
# [4] = second compound 0.1 µM, first compound 1 µM
# [5] = second compound 0.1 µM, first compound 3.16 µM
# [6] = second compound 0.1 µM, first compound 10 µM
# [7] = second compound 0.316 µM, first compound 0.0316 µM
# [8] = second compound 0.316 µM, first compound 0.1 µM
# [9] = second compound 0.316 µM, first compound 0.316 µM
# [10] = second compound 0.316 µM, first compound 1 µM
# [11] = second compound 0.316 µM, first compound 3.16 µM
# [12] = second compound 0.316 µM, first compound 10 µM
# [13] = second compound 1 µM, first compound 0.0316 µM
# [14] = second compound 1 µM, first compound 0.1 µM
# [15] = second compound 1 µM, first compound 0.316 µM
# [16] = second compound 1 µM, first compound 1 µM
# [17] = second compound 1 µM, first compound 3.16 µM
# [18] = second compound 1 µM, first compound 10 µM
# [19] = second compound 3.16 µM, first compound 0.0316 µM
# [20] = second compound 3.16 µM, first compound 0.1 µM
# [21] = second compound 3.16 µM, first compound 0.316 µM
# [22] = second compound 3.16 µM, first compound 1 µM
# [23] = second compound 3.16 µM, first compound 3.16 µM
# [24] = second compound 3.16 µM, first compound 10 µM
# [25] = second compound 10 µM, first compound 0.0316 µM
# [26] = second compound 10 µM, first compound 0.1 µM
# [27] = second compound 10 µM, first compound 0.316 µM
# [28] = second compound 10 µM, first compound 1 µM
# [29] = second compound 10 µM, first compound 3.16 µM
# [30] = second compound 10 µM, first compound 10 µM
smiles,measurement,setting,value
COC(=O)c1ccc2c(C(=Nc3ccc(N(C)C(=O)CN4CCN(C)CC4)cc3)c3ccccc3)c(O)[nH]c2c1 + COc1cc2nc(C)nc(NC(C)c3cc(N)cc(C(F)(F)F)c3)c2cc1OC1CCOC1,IC50,second compound 0.1 µM,797 nM
same,IC50,second compound 0.316 µM,325 nM
same,IC50,second compound 1 µM,52.2 nM
same,IC50,second compound 3.16 µM,< 31.6 nM
same,IC50,second compound 10 µM,< 31.6 nM
same,"viability, T/C",[1],98.5%
same,"viability, T/C",[2],85.7%
same,"viability, T/C",[3],53%
same,"viability, T/C",[4],50.9%
same,"viability, T/C",[5],34.9%
same,"viability, T/C",[6],10.4%
same,"viability, T/C",[7],67%
same,"viability, T/C",[8],57.1%
same,"viability, T/C",[9],51.5%
same,"viability, T/C",[10],25.5%
same,"viability, T/C",[11],26.3%
same,"viability, T/C",[12],20.8%
same,"viability, T/C",[13],54%
same,"viability, T/C",[14],46.1%
same,"viability, T/C",[15],33.4%
same,"viability, T/C",[16],28.7%
same,"viability, T/C",[17],26.7%
same,"viability, T/C",[18],16.2%
same,"viability, T/C",[19],45.2%
same,"viability, T/C",[20],32.6%
same,"viability, T/C",[21],36.5%
same,"viability, T/C",[22],24.5%
same,"viability, T/C",[23],18.9%
same,"viability, T/C",[24],0.46%
same,"viability, T/C",[25],39.9%
same,"viability, T/C",[26],32.6%
same,"viability, T/C",[27],30.7%
same,"viability, T/C",[28],24.5%
same,"viability, T/C",[29],0.7%
same,"viability, T/C",[30],0.2%
COc1cc(Nc2ncc3c(n2)-c2ccc(Cl)cc2C(c2c(F)cccc2OC)=NC3)ccc1C(=O)O + COc1cc2nc(C)nc(NC(C)c3cc(N)cc(C(F)(F)F)c3)c2cc1OC1CCOC1,IC50,second compound 0.1 µM,237 nM
same,IC50,second compound 0.316 µM,124 nM
same,IC50,second compound 1 µM,< 31.6 nM
same,IC50,second compound 3.16 µM,< 31.6 nM
same,IC50,second compound 10 µM,< 31.6 nM
same,"viability, T/C",[1],58%
same,"viability, T/C",[2],61.3%
same,"viability, T/C",[3],43.1%
same,"viability, T/C",[4],39.1%
same,"viability, T/C",[5],25.6%
same,"viability, T/C",[6],19.1%
same,"viability, T/C",[7],53.7%
same,"viability, T/C",[8],50%
same,"viability, T/C",[9],44%
same,"viability, T/C",[10],41.8%
same,"viability, T/C",[11],23.5%
same,"viability, T/C",[12],16.1%
same,"viability, T/C",[13],44.8%
same,"viability, T/C",[14],42.4%
same,"viability, T/C",[15],35.7%
same,"viability, T/C",[16],30.5%
same,"viability, T/C",[17],23.8%
same,"viability, T/C",[18],16.7%
same,"viability, T/C",[19],35.5%
same,"viability, T/C",[20],31.4%
same,"viability, T/C",[21],28.8%
same,"viability, T/C",[22],25.1%
same,"viability, T/C",[23],19.7%
same,"viability, T/C",[24],13.2%
same,"viability, T/C",[25],32.8%
same,"viability, T/C",[26],28.6%
same,"viability, T/C",[27],30.9%
same,"viability, T/C",[28],29.1%
same,"viability, T/C",[29],18%
same,"viability, T/C",[30],8.97%
COc1cc2nccc(Oc3ccc(NC(=O)C4(C(=O)Nc5ccc(F)cc5)CC4)cc3)c2cc1OC + COc1cc2nc(C)nc(NC(C)c3cc(N)cc(C(F)(F)F)c3)c2cc1OC1CCOC1,IC50,second compound 0.1 µM,> 10000 nM
same,IC50,second compound 0.316 µM,> 10000 nM
same,IC50,second compound 1 µM,> 10000 nM
same,IC50,second compound 3.16 µM,901 nM
same,IC50,second compound 10 µM,235 nM
same,"viability, T/C",[1],100%
same,"viability, T/C",[2],113%
same,"viability, T/C",[3],113%
same,"viability, T/C",[4],80.8%
same,"viability, T/C",[5],63.8%
same,"viability, T/C",[6],123%
same,"viability, T/C",[7],89.4%
same,"viability, T/C",[8],114%
same,"viability, T/C",[9],126%
same,"viability, T/C",[10],85.8%
same,"viability, T/C",[11],59.4%
same,"viability, T/C",[12],114%
same,"viability, T/C",[13],86.8%
same,"viability, T/C",[14],92.2%
same,"viability, T/C",[15],101%
same,"viability, T/C",[16],55.9%
same,"viability, T/C",[17],47%
same,"viability, T/C",[18],97.5%
same,"viability, T/C",[19],71.8%
same,"viability, T/C",[20],94.9%
same,"viability, T/C",[21],81.6%
same,"viability, T/C",[22],46%
same,"viability, T/C",[23],0.59%
same,"viability, T/C",[24],94%
same,"viability, T/C",[25],54.9%
same,"viability, T/C",[26],49.1%
same,"viability, T/C",[27],49.3%
same,"viability, T/C",[28],24.5%
same,"viability, T/C",[29],0.58%
same,"viability, T/C",[30],73%

# From PubChem BioAssay AID1963858 (Molecular Pharmacology Branch, DTP, NCI, 2024)
